The species named for data set [1] is Mus musculus. Conditions: at 13 mg/kg.
Description: Hypolipidemic activity in Triton WR1339-induced hyperlipidemia mouse model assessed as decrease in serum TG level at 13 mg/kg, ig administered for one week and administered with Triton WR 1339 on day 6 and measured after 24 hrs
A short description of data set [2]: Drug metabolism in po dosed mouse liver assessed as H2S release by measuring hydrogen sulfide level administered for 7 days and measured following 12 hrs fasting on day 7 (reference value: 93.8 +/- 6.1 nmol/g). Conditions: in vivo. It is filed as ADME, organism-based.
Data set [3] can be described thus: Drug metabolism in po dosed mouse plasma assessed as H2S release by measuring hydrogen sulfide level administered for 7 days and measured following 12 hrs fasting on day 7 (reference value: 52.9 +/- 5.4 umol/L). Format: ADME, organism-based. Conditions: in vivo.
Data set [4] deals with Rattus norvegicus. The data set is described as follows: Upregulation of PPAR-alpha protein expression in liver of Met-induced hyperlipidemia rat model at 9 mg/kg, po administered with compound for last 30 days during feeding of 0.2% Met solution for 60 days. It is filed as functional, organism-based.
Data set [5] has as its system Rattus norvegicus. The data set is described as follows: Hepatoprotective activity in Met-induced hyperlipidemia rat model assessed as decrease in red lipid droplets in hepatocytes at 9 mg/kg, po administered with compound for last 30 days during feeding of 0.2% Met solution for 60 days by oil red O-staining based microscopic analysis. Format: functional, organism-based.

Data set [6] relates to Rattus norvegicus. The data set is described as follows: Hepatoprotective activity in Met-induced hyperlipidemia rat model assessed as decrease in serum ALT level at 9 mg/kg, po administered with compound for last 30 days during feeding of 0.2% Met solution for 60 days. It is filed as functional, organism-based.
Data set [7] has as its system Rattus norvegicus. The data set is described as follows: Hepatoprotective activity in Met-induced hyperlipidemia rat model assessed as decrease in serum AST level at 9 mg/kg, po administered with compound for last 30 days during feeding of 0.2% Met solution for 60 days. It is filed as functional, organism-based.
The test system of data set [8] is Rattus norvegicus. Description: Hypolipidemic activity in Met-induced hyperlipidemia rat model assessed as increase in serum hydrogen sulfide level at 9 mg/kg, po administered with compound for last 30 days during feeding of 0.2% Met solution for 60 days. It is filed as functional, organism-based.
The species named for data set [9] is Mus musculus. Conditions: at 13 mg/kg. This is another data set of the same source.
Description: Hypolipidemic activity in Triton WR1339-induced hyperlipidemia mouse model assessed as decrease in serum MDA level at 13 mg/kg, ig administered for one week and administered with Triton WR 1339 on day 6 and measured after 24 hrs
For data set [10], the species on record is Mus musculus. Conditions: at 13 mg/kg. The source holds these as a separate data set.
Description: Hypolipidemic activity in Triton WR1339-induced hyperlipidemia mouse model assessed as decrease in serum TC level at 13 mg/kg, ig administered for one week and administered with Triton WR 1339 on day 6 and measured after 24 hrs
Data set [11] has as its system Rattus norvegicus. The data set is described as follows: Hypolipidemic activity in Met-induced hyperlipidemia rat model assessed as decrease in atherosclerosis index at 9 mg/kg, po administered with compound for last 30 days during feeding of 0.2% Met solution for 60 days. Format: functional, organism-based.
The nature of data set [12]: Drug metabolism in Met-induced hyperlipidemia rat model assessed as H2S release by measuring increase in serum hydrogen sulfide level at 9 mg/kg, po administered with compound for last 30 days during feeding of 0.2% Met solution for 60 days. Format: ADME, organism-based. Conditions: in vivo.
Data set [13] has as its system Rattus norvegicus. Description: Antioxidant activity in Met-induced hyperlipidemia rat model assessed as decrease in serum MDA level at 9 mg/kg, po administered with compound for last 30 days during feeding of 0.2% Met solution for 60 days. It is filed as functional, organism-based.
The subject of data set [14] is Rattus norvegicus. Description: Hypolipidemic activity in Met-induced hyperlipidemia rat model assessed as decrease in serum TC level at 9 mg/kg, po administered with compound for last 30 days during feeding of 0.2% Met solution for 60 days. Format: functional, organism-based.
For data set [15], the system named is Rattus norvegicus. Description: Hypolipidemic activity in Met-induced hyperlipidemia rat model assessed as decrease in serum Hcy level at 9 mg/kg, po administered with compound for last 30 days during feeding of 0.2% Met solution for 60 days. It is filed as functional, organism-based.
The test system of data set [16] is Rattus norvegicus. The data set is described as follows: Antioxidant activity in Met-induced hyperlipidemia rat model assessed as increase in serum SOD level at 9 mg/kg, po administered with compound for last 30 days during feeding of 0.2% Met solution for 60 days. It is filed as functional, organism-based.
In data set [17] the test system is Rattus norvegicus. The data set is described as follows: Vasorelaxation activity in Met-induced hyperlipidemia rat model assessed as effect on serum ET-1 level at 9 mg/kg, po administered with compound for last 30 days during feeding of 0.2% Met solution for 60 days. It is filed as functional, organism-based.
Data set [18] relates to Rattus norvegicus. The data set is described as follows: Hypolipidemic activity in Met-induced hyperlipidemia rat model assessed as decrease in serum TG level at 9 mg/kg, po administered with compound for last 30 days during feeding of 0.2% Met solution for 60 days. Format: functional, organism-based.
In data set [19] the test system is Rattus norvegicus. Description: Antioxidant activity in Met-induced hyperlipidemia rat model assessed as increase in serum T-AOC level at 9 mg/kg, po administered with compound for last 30 days during feeding of 0.2% Met solution for 60 days. It is filed as functional, organism-based.
Data set [20] deals with Rattus norvegicus. Description: Antiinflammatory activity in Met-induced hyperlipidemia rat model assessed as decrease in serum TNF-alpha level at 9 mg/kg, po administered with compound for last 30 days during feeding of 0.2% Met solution for 60 days by ELISA. Format: functional, organism-based. In general terms: ELISA stands for enzyme-linked immunosorbent assay.
In data set [21] the test system is Rattus norvegicus. The data set is described as follows: Antiinflammatory activity in Met-induced hyperlipidemia rat model assessed as decrease in serum IL-6 level at 9 mg/kg, po administered with compound for last 30 days during feeding of 0.2% Met solution for 60 days by ELISA. Format: functional, organism-based.
Data set [22] has as its system Rattus norvegicus. The data set is described as follows: Hepatoprotective activity in Met-induced hyperlipidemia rat model assessed as improvement in hepatic tissue hemorrhagic symptoms at 9 mg/kg, po administered with compound for last 30 days during feeding of 0.2% Met solution for 60 days by microscopic analysis. Format: functional, organism-based.
Data set [23] deals with Rattus norvegicus. The data set is described as follows: Hepatoprotective activity in Met-induced hyperlipidemia rat model assessed as decrease in inflammatory cell infiltration in liver at 9 mg/kg, po administered with compound for last 30 days during feeding of 0.2% Met solution for 60 days by microscopic analysis. Format: functional, organism-based.

Activity calls are given as the source filed them. The calls are words filed in the database; no cut-off is given here.

In the case of `COC(=O)C(C)Oc1ccc(-c2cc(=S)ss2)cc1` (stereo unspecified), the inhibition result in the data set filed under Mus musculus [1] was “Active”. Also, the results for the Drug metabolism in data set [2] and in [3] were 164.8 nmol/g and 119.3 µmol/L, respectively.
In the case of `CC(C)OC(=O)C(C)(C)Oc1ccc(C(=O)c2ccc(Cl)cc2)cc1`, the outcome in the data set with Rattus norvegicus [4], in the data set with Rattus norvegicus [5], in the data set on Rattus norvegicus [7] and in the data set with Rattus norvegicus [8] was Active. Moreover, the result in the data set with Rattus norvegicus [6] was inactive.
As to `CCC(Oc1ccc(-c2cc(=S)ss2)cc1)C(=O)OC` (stereo unspecified), the inhibition entry in the data set listed under Mus musculus [1] and in the data set listed under Mus musculus [9] was “Active” in each case. Also, the Drug metabolism in data set [2] came to 159.5 nmol/g; in data set [3], 128.8 µmol/L.
On to `COC(=O)CCCCOc1ccc(-c2cc(=S)ss2)cc1`, for which the inhibition result in the data set listed under Mus musculus [10] and in the data set listed under Mus musculus [1] was “Active” throughout. In addition, the Drug metabolism in data set [2] stood at 155.5 nmol/g; in data set [3], 86.5 µmol/L.
For the compound `COC(=O)CCCCCOc1ccc(-c2cc(=S)ss2)cc1`, the inhibition result in the data set listed under Mus musculus [1] is “Active”. In addition, the values for the Drug metabolism in data set [2] and in data set [3] were 132.1 nmol/g and 93.7 µmol/L, respectively.
As to `COc1ccc(-c2cc(=S)ss2)cc1` [ANETHOLTRITHION], the inhibition entry in the data set filed under Mus musculus [10] and in the data set filed under Mus musculus [1] was “inactive” each time. For the same compound, the Drug metabolism in data set [2] was determined as 181.3 nmol/g; in data set [3] it was 184.6 µmol/L. Further, the inhibition entry in the data set listed under Mus musculus [9] was “Active”.
As for `COC(=O)C(C)(C)Oc1ccc(-c2cc(=S)ss2)cc1`, the inhibition result in the data set listed under Mus musculus [10], with Rattus norvegicus [11], in the data set filed under Mus musculus [1], in the data set with Rattus norvegicus [13], in the data set on Rattus norvegicus [14] and in the data set on Rattus norvegicus [15] was “Active” each time. Besides, the inhibition result in the data set filed under Mus musculus [9], in the data set with Rattus norvegicus [18], in the data set with Rattus norvegicus [20] and with Rattus norvegicus [21] was “Active” in each case. The result with Rattus norvegicus [4], in the data set with Rattus norvegicus [5], in the data set with Rattus norvegicus [16], in the data set with Rattus norvegicus [19], in the data set with Rattus norvegicus [6] and with Rattus norvegicus [7] was Active. For the same compound, the result in the data set with Rattus norvegicus [22] and in the data set with Rattus norvegicus [23] was Active. Further, the Drug metabolism result is “Metabolite_Detected” in data set [12], 165.6 nmol/g in data set [2] and 113.4 µmol/L in data set [3]. For the same compound, the outcome in the data set with Rattus norvegicus [17] was inactive.
`COC(=O)CCCOc1ccc(-c2cc(=S)ss2)cc1`: the inhibition result in the data set filed under Mus musculus [10], in the data set filed under Mus musculus [1] and in the data set listed under Mus musculus [9] was “Active” in each case. Also, the Drug metabolism in data set [2] is 130.5 nmol/g; in data set [3], 95.5 µmol/L.
